These results are taken from publication PMC5504357, “Antifungal Potential of Copper(II), Manganese(II) and Silver(I) 1,10-Phenanthroline Chelates Against Multidrug-Resistant Fungal Species Forming the Candida haemulonii Complex: Impact on the Planktonic and Biofilm Lifestyles” (Frontiers in Microbiology, 2017).

For one data set, the system named is A549 cells. Nature of the data set: Mammalian cell toxicity (MTT assay) and selectivity index. The class given is cell-based, Human. The note with it: MTT, 48 h incubation. A digest of the protocol:
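A549 cells were exposed to compounds (0.0313–512 μg/mL) in DMEM for 48 h at 37 °C, 5% CO2. Viability was measured by MTT (3 h, dark), with formazan dissolved in DMSO and read at 450 nm. CC50 was derived, and SI calculated as A549 CC50 divided by C. haemulonii complex GM-MIC.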
Background: Tetrazolium dyes change colour on reduction, which living cells bring about.

Data set [1] relates to Candida haemulonii complex. Nature of the data set: Biofilm-growing cells, overall across isolates. The class given is cell-based. Conditions: for Overall GM-bMIC: geometric mean across strains, values marked * do not include LIP Ch4 (>512). The essentials:
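Yeasts (10^6 cells) form biofilms over 48 h at 37°C in Sabouraud-dextrose broth. Non-adherent cells are washed off with PBS, compounds are added at the planktonic-assay concentrations for a further 48 h, and XTT reduction gives metabolic activity, with 50% inhibition defining bMIC.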

The next data set relates to C. haemulonii complex. Description: Planktonic growth, overall across all nine isolates. It is filed as cell-based, Candida haemulonii complex. The note with it: geometric mean across all nine strains; for MIC: in μM, read-out: Overall GM-MIC. A digest of the protocol:
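Visual read-out: MIC taken as the lowest concentration showing no growth after 48 h incubation at 37°C in RPMI 1640. Compounds were serially diluted from DMSO solutions to 0.0625-32 mg/L, with matching DMSO controls, against three clinical isolates of each species.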

For `CCO.O=C([O-])COCCOCCOCC(=O)[O-].[Ag+].[Ag+].c1cnc2c(c1)ccc1cccnc12.c1cnc2c(c1)ccc1cccnc12.c1cnc2c(c1)ccc1cccnc12.c1cnc2c(c1)ccc1cccnc12` [compound 16, [Ag2(3,6,9-tdda)(phen)4].EtOH], the “A549 (CC50)” value with A549 cells is reported as 2.21 mg/L. Also, in data set [1] (biofilm MIC versus planktonic MIC), the “decrease in activity on going from planktonic to biofilm cells” value was 6.3 fold. In data set [1], the “Overall GM-bMIC” value is 6.35 mg/L. For the same molecule, in the data set with C. haemulonii complex, the “Overall GM-MIC” value turned out to be 1 mg/L and the MIC was 0.83 µM.

Turning to “{[Cu(3,6,9-tdda)(phen)2].3H2O.EtOH}n [compound 7]”, in the data set with A549 cells, the “A549 (CC50)” value worked out at 1.06 mg/L. Besides, the “Overall GM-bMIC” value in data set [1] is given as 5.88 mg/L. Further, in the data set on C. haemulonii complex, the “Overall GM-MIC” value was determined as 2.52 mg/L and the MIC came out at 3.37 µM.

The term MIC denotes the smallest concentration in the dilution series that meets the test's criterion for growth inhibition.
